Experimental data published in patent US11000033B2, “Ketone or oxime compound, and herbicide” (NISSAN CHEMICAL CORPORATION, priority 2014, dated 2021).

Tests used:
Type in all cases: in vivo
Monochoria vaginalis = assay: Test Example 1: herbicidal activity, application before weed generation in submerged conditions (symbol C); settings: application herbicide amount 320 g/ha
Procedure, shortened: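 In a flooded pot test with alluvial soil, the emulsion-formulated compound was diluted with water to a predetermined amount and applied to the floodwater immediately on the sowing day. Pots were held in a greenhouse at 25–30 °C for 3 weeks before each weed was rated.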

transplanted rice plant = assay: Test Example 1: effect on crop, application before weed generation in submerged conditions (symbol a); settings: application herbicide amount 320 g/ha
Procedure, shortened: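 Rice at 2.5 leaf stage transplanted into submerged soil (4 cm depth) sown with three weed species; herbicide applied before weed emergence.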

[1] = system: Echinochloa oryzacola Vasing.; assay: Test Example 2: herbicidal activity, application during weed generation in submerged conditions (symbol A); settings: Table 23; application herbicide amount 320 g/ha; grade 0-5 by criteria of Test Example 1
Procedure, shortened: (§1)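 Alluvial soil in pots was flooded to a 4 cm water depth and sown with a mix of the three weed species, then grown in a greenhouse at 25° C. to 30° C. At the one- to two-leaf stage, an emulsifiable formulation diluted in water to a set dose was applied to the water surface. Effects were scored visually 3 weeks later.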

Scirpus juncoides = assay: Test Example 2: herbicidal activity, application during weed generation in submerged conditions (symbol B); settings: Table 23; application herbicide amount 320 g/ha; grade 0-5 by criteria of Test Example 1
Procedure, shortened: as §1

[2] = system: Echinochloa crus-galli var. crus-galli; assay: Test Example 3: herbicidal effect by foliage application, Wagner pot (symbol H); settings: application herbicide amount 320 g/ha
Procedure, shortened: (§2)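 Weeds and rice were sown in alluvial soil under 0.1–0.5 cm of standing water and grown for 14 days in a 25–30 °C greenhouse. An emulsion of the compound, diluted in water to a set dose, was sprayed evenly onto the foliage. Effect was scored against fixed criteria 3 weeks after treatment.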

Leptochloa chinensis = assay: Test Example 3: herbicidal effect by foliage application, Wagner pot (symbol D); settings: application herbicide amount 320 g/ha
Procedure, shortened: as §2

Cyperus difformis = assay: Test Example 3: herbicidal effect by foliage application, Wagner pot (symbol E); settings: application herbicide amount 320 g/ha
Procedure, shortened: as §2

Abutilon theophrasti = assay: Test Example 4: herbicidal effect by soil treatment (symbol M); settings: application herbicide amount 320 g/ha
Procedure, shortened: (§3)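 Seeds were sown in sterilized diluvial soil, covered with about 1.5 cm of soil, and the soil surface was sprayed with a water-diluted emulsion of the compound at a predetermined rate. Plants grew in a greenhouse at 25° C. to 30° C.; effects were scored visually 3 weeks after application.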

Stellaria media = assay: Test Example 4: herbicidal effect by soil treatment (symbol P); settings: application herbicide amount 320 g/ha
Procedure, shortened: as §3

corn [3] = assay: Test Example 4: effect on crop by soil treatment (symbol c); settings: application herbicide amount 320 g/ha
Procedure, shortened: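 Plants are raised in a greenhouse (25° C. to 30° C.) from spot-sown seed, which sits under about 1.5 cm of sterilized diluvial soil in a box shared with weed species.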

soybean [4] = assay: Test Example 4: effect on crop by soil treatment (symbol d); settings: application herbicide amount 320 g/ha
Procedure, shortened: (§4)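 Diluvial soil (sterilized) in boxes; seeds placed spot-wise alongside weed species; ~1.5 cm covering soil. Greenhouse, 25–30° C.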

wheat = assay: Test Example 4: effect on crop by soil treatment (symbol e); settings: application herbicide amount 320 g/ha
Procedure, shortened: as §4

corn [5] = assay: Test Example 5: effect on crop by foliage application, plastic box (symbol c); settings: 320 g/ha, 3 weeks after application
Procedure, shortened: (§5)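 Seeds were sown in spots in sterilized diluvial soil held in a plastic box 21 cm × 13 cm × 7 cm deep, covered with about 1.5 cm of soil, and grown in a greenhouse at 25° C. to 30° C.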

soybean [6] = assay: Test Example 5: effect on crop by foliage application, plastic box (symbol d); settings: 320 g/ha, 3 weeks after application
Procedure, shortened: as §5

rice plant = assay: Test Example 5: effect on crop by foliage application, plastic box (symbol b); settings: 320 g/ha, 3 weeks after application
Procedure, shortened: as §5

beet = assay: Test Example 5: effect on crop by foliage application, plastic box (symbol f); settings: 320 g/ha, 3 weeks after application
Procedure, shortened: as §5

CON=C(C)CC1CC(O)=C(c2c(C)cc(-c3ccccn3)cc2C)C1=O (mixture of isomers) [6-051]
Herbicidal effect grade, C: Monochoria vaginalis (Monochoria vaginalis): 2 (Herbicidal ratio of 20% or higher and lower than 40%)
Effect grade on crop, a: transplanted rice plant (transplanted rice plant): 5 (Herbicidal ratio of 90% or more (almost completely withered))
Herbicidal effect grade, A: Echinochloa oryzacola Vasing. [1]: 5 (Herbicidal ratio of 90% or more (almost completely withered))
Herbicidal effect grade, B: Scirpus juncoides (Scirpus juncoides): 4 (Herbicidal ratio of 70% or higher and lower than 90%)
herbicidal effect on H (Echinochloa crus-galli var. crus-galli), grade 0-5 [2]: 5 (Herbicidal ratio of 90% or more (almost completely withered))
herbicidal effect on D (Leptochloa chinensis), grade 0-5 (Leptochloa chinensis): 5 (Herbicidal ratio of 90% or more (almost completely withered))
herbicidal effect on E, grade 0-5 (Cyperus difformis): 5 (Herbicidal ratio of 90% or more (almost completely withered))
M: Abutilon theophrasti, herbicidal effect grade (Abutilon theophrasti): 1 (Herbicidal ratio of 5% or higher and lower than 20%)
P: Stellaria media, herbicidal effect grade (Stellaria media): 2 (Herbicidal ratio of 20% or higher and lower than 40%)
c: corn, effect on crop grade (corn [3]): 1 (Herbicidal ratio of 5% or higher and lower than 20%)
d: soybean, effect on crop grade (soybean [4]): 1 (Herbicidal ratio of 5% or higher and lower than 20%)
e: wheat, effect on crop grade (wheat): 2 (Herbicidal ratio of 20% or higher and lower than 40%)
c: corn, effect on crop grade (corn [5]): 5 (Herbicidal ratio of 90% or more (almost completely withered))
d: soybean, effect on crop grade (soybean [6]): 1 (Herbicidal ratio of 5% or higher and lower than 20%)
b: directly sowed rice plant, effect on crop grade (rice plant): 5 (Herbicidal ratio of 90% or more (almost completely withered))
f: beet, effect on crop grade (beet): 3 (Herbicidal ratio of 40% or higher and lower than 70%)

COC(=O)CON=C(C)CC1CC(O)=C(c2c(C)cc(C)cc2C)C1=O (centres unmarked) [1-023]
Herbicidal effect grade, C: Monochoria vaginalis (Monochoria vaginalis): 0 (Herbicidal ratio of 5% or lower (almost no effect))
Effect grade on crop, a: transplanted rice plant (transplanted rice plant): 1 (Herbicidal ratio of 5% or higher and lower than 20%)
Herbicidal effect grade, A: Echinochloa oryzacola Vasing. [1]: 4 (Herbicidal ratio of 70% or higher and lower than 90%)
Herbicidal effect grade, B: Scirpus juncoides (Scirpus juncoides): 0 (Herbicidal ratio of 5% or lower (almost no effect))
herbicidal effect on H (Echinochloa crus-galli var. crus-galli), grade 0-5 [2]: 5 (Herbicidal ratio of 90% or more (almost completely withered))
herbicidal effect on D (Leptochloa chinensis), grade 0-5 (Leptochloa chinensis): 5 (Herbicidal ratio of 90% or more (almost completely withered))
herbicidal effect on E, grade 0-5 (Cyperus difformis): 0 (Herbicidal ratio of 5% or lower (almost no effect))
M (Abutilon theophrasti) herbicidal effect grade (Abutilon theophrasti): 0 (Herbicidal ratio of 5% or lower (almost no effect))
P (Stellaria media) herbicidal effect grade (Stellaria media): 0 (Herbicidal ratio of 5% or lower (almost no effect))
c (corn) effect on crop grade (corn [3]): 0 (Herbicidal ratio of 5% or lower (almost no effect))
d (soybean) effect on crop grade (soybean [4]): 0 (Herbicidal ratio of 5% or lower (almost no effect))
e (wheat) effect on crop grade (wheat): 0 (Herbicidal ratio of 5% or lower (almost no effect))
c: corn, effect on crop grade (corn [5]): 1 (Herbicidal ratio of 5% or higher and lower than 20%)
d: soybean, effect on crop grade (soybean [6]): 0 (Herbicidal ratio of 5% or lower (almost no effect))
b: directly sowed rice plant, effect on crop grade (rice plant): 4 (Herbicidal ratio of 70% or higher and lower than 90%)
f: beet, effect on crop grade (beet): 0 (Herbicidal ratio of 5% or lower (almost no effect))
